# Experiments:
# IAV [1] = experiment: Plaque reduction assay, IAV; assay type: cell-based, influenza A virus (PR8-GFP); conditions: Influenza A virus, MDCK, virus pre-treated 1 h at room temperature, MDCK cells, MOI 0.01, plaque assay 48 h after infection; read-out: 50% inhibitory concentration (IC50) for IAV
# Procedure: All experiments were performed in triplicate.
# HA1 = HA1 (Influenza A virus, UniProt P03452); experiment: Hemagglutination inhibition assay with chicken red blood cells; conditions: IAV treated with 1 µg/mL, cRBC 0.5%
# Sequence of HA1 (P03452 18-343 limits assumed): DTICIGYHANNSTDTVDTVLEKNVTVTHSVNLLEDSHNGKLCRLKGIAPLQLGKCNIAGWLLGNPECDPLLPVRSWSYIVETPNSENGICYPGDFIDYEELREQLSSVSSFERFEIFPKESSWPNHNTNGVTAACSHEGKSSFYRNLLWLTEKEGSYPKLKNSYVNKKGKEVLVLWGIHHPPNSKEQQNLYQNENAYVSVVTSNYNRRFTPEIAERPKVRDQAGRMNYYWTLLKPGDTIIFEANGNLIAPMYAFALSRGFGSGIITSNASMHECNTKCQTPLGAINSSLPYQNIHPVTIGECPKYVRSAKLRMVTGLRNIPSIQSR
# Sequence of HA1 (P03452 344-565 partner limits assumed): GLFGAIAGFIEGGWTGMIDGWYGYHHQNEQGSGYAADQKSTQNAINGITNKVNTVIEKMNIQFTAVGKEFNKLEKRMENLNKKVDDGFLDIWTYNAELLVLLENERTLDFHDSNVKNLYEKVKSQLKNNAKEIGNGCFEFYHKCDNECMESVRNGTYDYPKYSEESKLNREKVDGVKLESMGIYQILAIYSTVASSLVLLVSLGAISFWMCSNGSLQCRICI
# IAV [2] = experiment: Time-of-drug-addition assay, viral RNA transcript levels via qRT-PCR; assay type: cell-based, influenza A virus (PR8-GFP)
# HA2 = HA2 (Influenza A virus, UniProt P03452); experiment: Hemolysis inhibition assay with chicken red blood cells; conditions: IAV treated with 1 µg/mL, cRBC 2%, pH 5.2
# Sequence of HA2 (P03452 344-565 limits assumed): as the sequence (P03452 344-565 partner limits assumed) above
# Sequence of HA2 (P03452 18-343 partner limits assumed): as the sequence (P03452 18-343 limits assumed) above
# IAV [3] = experiment: Western blot analysis of IAV HA protein level after time-of-drug-addition treatment; assay type: cell-based, influenza A virus (PR8-GFP)
# IBV = experiment: Plaque reduction assay, IBV; conditions: Influenza B virus, MDCK, read-out: 50% inhibitory concentration (IC50) for IBV, virus pre-treated 1 h at room temperature, MDCK cells, MOI 0.001, plaque assay 48 h after infection
# MDCK cells = experiment: Cytotoxicity / MTT assay; assay type: cell-based, canine; conditions: 48 h, up to a concentration of 10 µg/mL
# Procedure: To clarify whether the inhibitory activities of ethyl pheophorbides a and b are mediated through cytotoxicity, MDCK cells were treated with different concentrations of each compound and cell viability was determined after 48 h via the MTT assay (Figure S7).
# After a 4 h period, tetrazolium crystals were dissolved with DMSO and absorbance was measured at 560 nm.
# adenovirus = experiment: Adenovirus plaque assay; conditions: virus pre-treated 1 h at room temperature, 293A cells
# IAV NA = IAV NA (Influenza A virus, UniProt P03468); assay type: biochemical
# Sequence of IAV NA (P03468 whole entry, looked up): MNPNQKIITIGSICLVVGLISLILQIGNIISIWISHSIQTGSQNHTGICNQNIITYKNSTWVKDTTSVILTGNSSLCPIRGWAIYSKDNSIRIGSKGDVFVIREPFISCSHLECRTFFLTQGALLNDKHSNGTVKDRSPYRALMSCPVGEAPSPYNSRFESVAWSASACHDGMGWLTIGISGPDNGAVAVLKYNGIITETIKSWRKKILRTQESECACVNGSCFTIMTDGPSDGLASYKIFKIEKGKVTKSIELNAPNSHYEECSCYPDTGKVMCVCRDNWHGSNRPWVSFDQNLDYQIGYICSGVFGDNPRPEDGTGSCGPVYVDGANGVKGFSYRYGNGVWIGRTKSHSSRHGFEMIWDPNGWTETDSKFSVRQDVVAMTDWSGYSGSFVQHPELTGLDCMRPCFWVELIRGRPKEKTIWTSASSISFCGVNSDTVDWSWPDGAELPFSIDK
Structure (SMILES),IC50 (IAV [1]) [µg/mL],hemagglutination inhibition (HA1 function) (HA1),IAV transcript levels (IAV [2]),hemolysis inhibition (HA2 function) (HA2),expression of IAV HA protein (IAV [3]),IC50 (IBV) [µg/mL],cell viability (MTT) (MDCK cells),effect against non-enveloped adenovirus (adenovirus),effect on IAV NA activity (IAV NA),"IAV replication (viral RNA transcript level) (IAV [2]; treatment during virus adsorption to host cells, 1 mM)","IAV HA protein level (IAV [3]; treatment during adsorption, 1 mM, western blot)"
C=CC1=C(C)c2cc3[nH]c(c4c5nc(cc6[nH]c(cc1n2)c(C)c6CC)C(C)=C5C(=O)C4C(=O)OC)C(CCC(=O)OCC)C3C (centres unmarked) [ethyl pheophorbide a],0.086 ± 0.072,no effect,significantly reduced,no effect,significantly suppressed,1.62 ± 0.86,no adverse effects on cell viability,no effect,no effects,–,–
C=CC1=C(C)c2cc3[nH]c(c4c5nc(cc6[nH]c(cc1n2)c(C=O)c6CC)C(C)=C5C(=O)C4C(=O)OCC)C(CCC(=O)O)C3C (centres unmarked) [ethyl pheophorbide b],0.094 ± 0.058,no effect,significantly reduced,no effect,significantly suppressed,3.17 ± 0.94,no adverse effects on cell viability,no effect,no effects,–,–
"NC12CC3CC(CC(C3)C1)C2 [Amantadine, reference compound]",–,–,–,–,–,–,–,–,–,marked decrease,marked downregulation

# Reference: article PMC9822050, “Antiviral Activities of Ethyl Pheophorbides a and b Isolated from Aster pseudoglehnii against Influenza Viruses” (Molecules, 2022)
